# Like-named read-outs stand apart in the source and are kept apart here. Where a SMILES comes first, the peptide text is derived from it. Bridges are numbered along the chain shown (N, C = ends).
# Assays:
# [1] = tested on: apElevR1; experiment: IP1 accumulation assay, apElevR1 in CHO-K1 cells; assay type: cell-based, Aplysia californica; conditions: for apElevR1 Log[EC50] (M): logarithm of molar EC50, IP1 accumulation, CHO-K1 transiently expressing apElevR1 (pcDNA3.1(+)), no Gα16 co-transfection, peptide 10^-12 to 10^-4 M, 1 h incubation, mean ± SEM, n = 3, NA = no activation, SEM
# Description: (§1) To determine whether the Aplysia elevenin can activate the putative elevenin receptors, we cloned apElevRs to pcDNA3.1 (+) plasmid and transfected the three apElevRs in CHO-K1 cells. We used an IP1 accumulation assay to measure the concentration of IP1, which is a by-product in the Gαq signaling pathway, to provide evidence for the activation of receptors by elevenin. […] Initially, we used the elevenin peptide at two concentrations of 10^–11 M and 10^–4 M to screen apElevR1, apElevR2, and apElevR3. […] Further, we used different concentration gradients of elevenin, ranging from 10^–12 to 10^–4 M, to generate the dose–response curves (Fig. 8B–E).
# (§2) Gαq-coupled GPCRs stimulate PLC-β activity, resulting in increased cellular D-Myo-Inositol 1-Phosphate (IP1). When the G protein-coupled receptor (GPCR) expressed in CHO-K1 cells (Procell, CL-0062) is activated, it is generated by the Gαq pathway through the appropriate ligand, and IP3 is formed which is degraded to IP1. Therefore, IP1 can be used as an alternative to IP3. First, the putative receptor cloned into the mammalian expression vector pcDNA3.1( +) of Aplysia was transiently expressed in CHO-K1 cells. CHO-K1 cells were cultured in F-12 K medium (Gibco, 21,127–022) containing 10% fetal bovine serum (Genial, G11-70,500) at 37 °C and 5% CO2. When the cell density in the 6-well plate reached 70–90%, 1.5 μg of putative receptor plasmid [in pcDNA3.1( +)] was mixed with 200 μl buffer (Polyplus) in a 1.5 ml EP tube and incubated at room temperature for 10 min. The DNA/Transfection reagent (Polyplus) mixture was then added dropwise to the 6-well plate, mixed gently, and the cells were incubated overnight at 37 °C and 5% CO2. The next day, cells were digested, counted, diluted to a density of 40,0000 cells/ml, and replated in a white 384-well assay plate (Greiner bio-one, B14061RI), each well inoculated with the diluted liquid 50 μl and incubate overnight at 37 °C in 5% CO2. On the third day, the CHO cells were incubated for 1 h after adding peptide. The activation of putative receptors was detected by monitoring IP1 accumulation using the IP1 detection kit in Tecan Spark (Cisbio, 62IPAPEB). All procedures were performed according to the manufacturer's instructions for the IP1 assay kit. The elevenin peptide and analogs were synthesized by Sangon Biotech or Guoping Pharmaceutical (Supplementary Fig. 4) and were aliquoted in 50 nmol EP tubes and stored at -20 °C until use.
# (§3) Dose–response curves and bar graphs for experimental data were plotted using Prism software (GraphPad). Data are expressed as the mean ± SEM. Final EC50 values are rounded to two significant figures. All experimental data were taken from individual animals or preparations, and n refers to the number of preparations. Data were considered significant when P < 0.05. Statistical tests were performed using Prism software. They included Student’s t-test (two groups) and one-way ANOVA (three or more groups).
# [2] = tested on: apElevR2; experiment: IP1 accumulation assay, apElevR2 in CHO-K1 cells; assay type: cell-based, Aplysia californica; conditions: for EC50 / apElevR2 Log[EC50] (M): IP1 accumulation, NA = no activation; for apElevR2 Log[EC50] (M): logarithm of molar EC50, CHO-K1 transiently expressing apElevR2 (pcDNA3.1(+)), no Gα16 co-transfection, peptide 10^-12 to 10^-4 M, 1 h incubation, mean ± SEM, n = 3, SEM
# Description: as §1, §2, §3
# [3] = tested on: apElevR3; experiment: IP1 accumulation assay, apElevR3 in CHO-K1 cells; assay type: cell-based, Aplysia californica; conditions: for apElevR3 Log[EC50] (M): logarithm of molar EC50, IP1 accumulation, CHO-K1 transiently expressing apElevR3 (pcDNA3.1(+)), no Gα16 co-transfection, peptide 10^-12 to 10^-4 M, 1 h incubation, mean ± SEM, n = 3, NA = no activation, SEM
# Description: as §1, §2, §3
# [4] = tested on: AstC-R; conditions: peptide could activate AstC-R; cited from earlier work
# Description: It is notable that there are 6 residu ...
# [5] = molecular target: elevenin receptor (second of two listed); conditions: CHO cells, Ca2+ response, no Gα16, cited from earlier work
# Description: (§4) Although the function of elevenin was first studied in C.elegans, its actual elevenin receptors have not yet been found in this species. In fact, prior to our work, there are a total of 6 elevenin receptors that have been described (Fig. 7). First, there are two GPCRs that have been deorphanized as elevenin receptors in both annelid Platynereis and arthropod Ixodes[2],[9]^. There is a single elevenin receptor in Nilaparvata lugens or Bombus terrestris[23] although we could not find the sequence for Nilaparvata NlA42 in NCBI. Second, in annelid Platynereis, the EC50 values of two elevenin recep ...
# [6] = molecular target: elevenin receptor (first of two listed); conditions: CHO cells, Ca2+ response, no Gα16, cited from earlier work
# Description: as §4
# [7] = CHO-K1 transiently expressing apElevR2, no Gα16, 1 h peptide incubation, average of n = 3, rounded to two significant figures, read-out: apElevR2 [EC50]
# [8] = screen at 10^-4 M compared with 10^-11 M peptide, CHO-K1, n = 3, Student's t-test (Fig. 8A)
Compound,apElevR1 Log[EC50] (M) [1] [M],apElevR2 Log[EC50] (M) [2] [M],apElevR3 Log[EC50] (M) [3] [M],other results
CC(C)[C@@H]1NC(=O)[C@H](Cc2ccccc2)NC(=O)[C@H](CCCNC(=N)N)NC(=O)[C@H]([C@@H](C)O)NC(=O)[C@@H](NC(=O)[C@@H](N)CC(=O)O)CSSC[C@@H](C(=O)N[C@@H](CCCNC(=N)N)C(=O)NCC(=O)O)NC(=O)[C@H](C)NC(=O)[C@@H]2CCCN2C(=O)[C@H](C)NC(=O)[C@H](Cc2ccccc2)NC1=O [Elevenin5-17] (H-DCTRFVFAPACRG-OH; disulfide 2-11; N-terminus and C-terminus assumed),-5.11±0.28,-4.31±0.65,-5.52±0.18,"EC50 [2, 7]: > 10000 nM"
CC(C)[C@@H]1NC(=O)[C@H](Cc2ccccc2)NC(=O)[C@H](CCCNC(=N)N)NC(=O)[C@H]([C@@H](C)O)NC(=O)[C@@H](N)CSSC[C@@H](C(=O)O)NC(=O)[C@H](C)NC(=O)[C@@H]2CCCN2C(=O)[C@H](C)NC(=O)[C@H](Cc2ccccc2)NC1=O [Elevenin6-15] (H-CTRFVFAPAC-OH; disulfide 1-10),,,-5.20±0.36,"Effect on apElevR1 (IP1 dose-response), in words ([1]; dose-response, CHO-K1, n = 3 (Fig. 10A, G)): did not have any effect; EC50 [2, 7]: > 10000 nM"
CC[C@H](C)[C@H](NC(=O)[C@H](CCCNC(=N)N)NC(=O)[C@@H]1CCCN1C(=O)[C@@H](N)CCCNC(=N)N)C(=O)N[C@@H](CC(=O)O)C(=O)N[C@H]1CSSC[C@@H](C(=O)N[C@@H](CCCNC(=N)N)C(=O)NCC(=O)N[C@H](C(=O)N[C@@H](CO)C(=O)N[C@@H](C)C(=O)O)C(C)C)NC(=O)[C@H](C)NC(=O)[C@@H]2CCCN2C(=O)[C@H](C)NC(=O)[C@H](Cc2ccccc2)NC(=O)[C@H](C(C)C)NC(=O)[C@H](Cc2ccccc2)NC(=O)[C@H](CCCNC(=N)N)NC(=O)[C@H]([C@@H](C)O)NC1=O [Elevenin] (H-RPRIDCTRFVFAPACRGVSA-OH; disulfide 6-15; N-terminus and C-terminus assumed),-7.60±0.40,-8.93±0.34,-8.51±0.37,"Activation of apElevR1 in screening (IP1), in words [1, 8]: could not activate; Activation of apElevR2 in screening (IP1), in words [2, 8]: could not activate; Activation of apElevR3 in screening (IP1), in words [3, 8]: could not activate"
CC[C@H](C)[C@H](NC(=O)[C@H](CCCNC(=N)N)NC(=O)[C@@H]1CCCN1C(=O)[C@@H](N)CCCNC(=N)N)C(=O)N[C@@H](CC(=O)O)C(=O)N[C@H]1CSSC[C@@H](C(=O)N[C@@H](CCCNC(=N)N)C(=O)NCC(=O)N[C@H](C(=O)N[C@@H](CO)C(=O)N[C@@H](C)C(=O)O)C(C)C)NC(=O)[C@H](C)NC(=O)[C@@H]2CCCN2C(=O)[C@H](C)NC(=O)[C@H](C)NC(=O)[C@H](C(C)C)NC(=O)[C@H](Cc2ccccc2)NC(=O)[C@H](CCCNC(=N)N)NC(=O)[C@H]([C@@H](C)O)NC1=O [[Ala^11]Elevenin] (H-RPRIDCTRFVAAPACRGVSA-OH; disulfide 6-15; N-terminus and C-terminus assumed),-6.97 ±0.20,-6.62±0.10,-6.55±0.21,
CC[C@H](C)[C@H](NC(=O)[C@H](CCCNC(=N)N)NC(=O)[C@@H]1CCCN1C(=O)[C@@H](N)CCCNC(=N)N)C(=O)N[C@@H](CC(=O)O)C(=O)N[C@H]1CSSC[C@@H](C(=O)N[C@@H](CCCNC(=N)N)C(=O)NCC(=O)N[C@H](C(=O)N[C@@H](CO)C(=O)N[C@@H](C)C(=O)O)C(C)C)NC(=O)[C@H](C)NC(=O)[C@H](C)NC(=O)[C@H](C)NC(=O)[C@H](Cc2ccccc2)NC(=O)[C@H](C(C)C)NC(=O)[C@H](Cc2ccccc2)NC(=O)[C@H](CCCNC(=N)N)NC(=O)[C@H]([C@@H](C)O)NC1=O [[Ala^13]Elevenin] (H-RPRIDCTRFVFAAACRGVSA-OH; disulfide 6-15; N-terminus and C-terminus assumed),-6.92±0.13,-4.48±0.21,-6.42±0.34,"EC50 ([2]; Table 2 prints no unit, the same values are in nM in Fig. 9J, CHO-K1, n = 3, read-out: EC50 values on apElevR2 (Table 2)): > 10000 nM"
AstC without a disulfide bond: Aplysia allatostatin-C (SHYSSMCMFNVVACY) without a disulfide bond (no disulfide bond),,,,"EC50 value on AstC-R compared to AstC with the disulfide bond, in words [4]: significantly higher"
"LDCRKYPFYYRCRGISA [Ixodes elevenin, elevenin of arthropod Ixodes scapularis, ligand of its two elevenin receptors (literature)]",,,,EC50 ([5]; Ixodes): 5.59 nM; EC50 ([6]; Ixodes): 0.01 nM
"PDCTRFVFHPSCRGVAA [Platynereis elevenin, elevenin of annelid Platynereis dumerilii, ligand of its two elevenin receptors (literature)]",,,,EC50 ([5]; Platynereis): 1.3 nM; EC50 ([6]; Platynereis): 62 nM
